Measured values taken from ChEMBL document CHEMBL4190187, “Discovery of pyrazolopyrimidine derivatives as novel inhibitors of ataxia telangiectasia and rad3 related protein (ATR)” (Bioorg Med Chem Lett, 2017).

Legend:
[1] = molecular target: Serine/threonine-protein kinase BRSK1 (Homo sapiens) (UniProt Q8TDC3); assay: Inhibition of recombinant human BrSK1 (2 to end residues) at 1 uM using KKKVSRSGLYRSPSMPENLNRPR as substrate after 40 mins in presence of [gamma-33P]ATP by scintillation counting method
Sequence of Serine/threonine-protein kinase BRSK1 (Homo sapiens) (Q8TDC3 whole entry): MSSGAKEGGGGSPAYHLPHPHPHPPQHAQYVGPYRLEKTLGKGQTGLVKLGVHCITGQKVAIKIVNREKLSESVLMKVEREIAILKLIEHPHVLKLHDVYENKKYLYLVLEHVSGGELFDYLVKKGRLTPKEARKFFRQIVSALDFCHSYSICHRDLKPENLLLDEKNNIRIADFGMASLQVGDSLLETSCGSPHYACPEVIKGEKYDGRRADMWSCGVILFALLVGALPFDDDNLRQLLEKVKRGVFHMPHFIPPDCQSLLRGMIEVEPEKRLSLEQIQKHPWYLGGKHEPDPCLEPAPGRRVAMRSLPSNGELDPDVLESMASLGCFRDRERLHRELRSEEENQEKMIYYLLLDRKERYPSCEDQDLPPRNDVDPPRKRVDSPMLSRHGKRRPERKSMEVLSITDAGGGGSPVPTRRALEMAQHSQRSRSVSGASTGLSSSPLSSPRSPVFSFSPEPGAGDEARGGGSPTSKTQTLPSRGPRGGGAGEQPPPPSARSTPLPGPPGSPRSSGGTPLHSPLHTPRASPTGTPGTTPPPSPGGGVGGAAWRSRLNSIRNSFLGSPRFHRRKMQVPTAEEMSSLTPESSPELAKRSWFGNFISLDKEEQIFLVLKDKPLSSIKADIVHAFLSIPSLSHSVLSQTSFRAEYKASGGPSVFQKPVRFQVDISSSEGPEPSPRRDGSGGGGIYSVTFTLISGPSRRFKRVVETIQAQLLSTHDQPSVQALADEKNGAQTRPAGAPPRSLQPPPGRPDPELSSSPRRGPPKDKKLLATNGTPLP

[2] = molecular target: Proto-oncogene tyrosine-protein kinase Src (Homo sapiens) (UniProt P12931); assay: Inhibition of recombinant full-length human cSRC at 1 uM using KVEKIGEGTYGVVYK (Cdc2 peptide) as substrate after 40 mins in presence of [gamma-33P]ATP by scintillation counting method
Sequence of Proto-oncogene tyrosine-protein kinase Src (Homo sapiens) (P12931 2-536 limits assumed): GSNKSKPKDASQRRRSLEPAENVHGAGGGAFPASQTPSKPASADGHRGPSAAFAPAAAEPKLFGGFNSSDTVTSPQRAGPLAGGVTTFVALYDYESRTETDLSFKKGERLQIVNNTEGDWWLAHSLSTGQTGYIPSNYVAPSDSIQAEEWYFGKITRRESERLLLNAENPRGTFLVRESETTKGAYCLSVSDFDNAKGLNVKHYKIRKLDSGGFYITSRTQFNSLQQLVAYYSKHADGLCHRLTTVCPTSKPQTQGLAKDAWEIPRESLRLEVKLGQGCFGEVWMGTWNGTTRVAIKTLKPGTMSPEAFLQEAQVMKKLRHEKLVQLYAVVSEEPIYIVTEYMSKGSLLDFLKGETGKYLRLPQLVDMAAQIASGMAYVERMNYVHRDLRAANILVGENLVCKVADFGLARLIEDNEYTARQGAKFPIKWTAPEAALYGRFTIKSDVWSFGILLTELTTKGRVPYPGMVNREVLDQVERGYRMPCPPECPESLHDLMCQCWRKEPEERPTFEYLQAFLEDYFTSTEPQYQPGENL

[3] = molecular target: Dual specificity tyrosine-phosphorylation-regulated kinase 2 (Homo sapiens) (UniProt Q92630); assay: Inhibition of recombinant full-length human DYRK2 at 1 uM using casein as substrate after 40 mins in presence of [gamma-33P]ATP by scintillation counting method
Sequence of Dual specificity tyrosine-phosphorylation-regulated kinase 2 (Homo sapiens) (Q92630 whole entry, the tested form may be a part): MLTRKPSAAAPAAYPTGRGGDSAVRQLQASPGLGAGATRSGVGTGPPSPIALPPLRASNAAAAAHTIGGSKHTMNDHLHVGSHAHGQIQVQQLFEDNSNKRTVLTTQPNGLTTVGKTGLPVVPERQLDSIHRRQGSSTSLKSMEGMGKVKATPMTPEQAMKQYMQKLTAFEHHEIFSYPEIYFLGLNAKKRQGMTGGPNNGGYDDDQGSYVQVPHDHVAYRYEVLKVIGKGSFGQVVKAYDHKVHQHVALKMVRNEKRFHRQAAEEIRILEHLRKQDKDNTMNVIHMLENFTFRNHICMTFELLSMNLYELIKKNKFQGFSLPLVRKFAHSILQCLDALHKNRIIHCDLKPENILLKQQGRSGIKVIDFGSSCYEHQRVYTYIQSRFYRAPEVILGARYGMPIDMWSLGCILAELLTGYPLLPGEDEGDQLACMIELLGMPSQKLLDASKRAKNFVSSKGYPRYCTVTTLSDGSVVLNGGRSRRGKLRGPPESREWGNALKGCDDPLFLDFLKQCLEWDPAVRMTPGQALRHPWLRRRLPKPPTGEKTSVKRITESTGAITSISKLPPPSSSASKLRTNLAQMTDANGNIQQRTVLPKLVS

[4] = molecular target: Serine/threonine-protein kinase SIK3 (Homo sapiens) (UniProt Q9Y2K2); assay: Inhibition of recombinant human SIK3 (1 to 307 residues) at 1 uM using KKKVSRSGLYRSPSMPENLNRPR as substrate after 40 mins in presence of [gamma-33P]ATP by scintillation counting method
[5] = tested on: Macrophage colony-stimulating factor 1 receptor (Homo sapiens), P07333 [Y969C]; assay: Inhibition of recombinant human Fms Y969C mutant (538 to end residues) at 1 uM using EEEEYEEEEEEYYIIEEEEEEYEEEEEEYYEEEEEEKKKK as substrate after 40 mins in presence of [gamma-33P]ATP by scintillation counting method
[6] = molecular target: Mitogen-activated protein kinase 11 (Homo sapiens) (UniProt Q15759); assay: Inhibition of recombinant full-length human SAPK2b at 1 uM using myelin basic protein as substrate after 40 mins in presence of [gamma-33P]ATP by scintillation counting method
Sequence of Mitogen-activated protein kinase 11 (Homo sapiens) (Q15759 whole entry, the tested form may be a part, canonical isoform): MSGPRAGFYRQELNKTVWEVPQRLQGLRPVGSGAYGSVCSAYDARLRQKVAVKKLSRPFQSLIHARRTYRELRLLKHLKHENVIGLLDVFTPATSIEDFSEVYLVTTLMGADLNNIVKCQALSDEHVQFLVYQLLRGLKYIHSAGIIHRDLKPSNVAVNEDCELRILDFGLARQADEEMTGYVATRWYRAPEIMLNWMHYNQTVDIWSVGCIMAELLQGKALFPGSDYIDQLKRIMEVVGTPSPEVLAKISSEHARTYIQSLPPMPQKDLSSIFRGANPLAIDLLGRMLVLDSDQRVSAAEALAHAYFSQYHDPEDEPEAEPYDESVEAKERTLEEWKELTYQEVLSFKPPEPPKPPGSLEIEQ

[7] = molecular target: Casein kinase I isoform gamma-3 (Homo sapiens) (UniProt Q9Y6M4); assay: Inhibition of recombinant human CK1gamma3 (1 to 330 residues) at 1 uM using KRRRALS(p)VASLPGL as substrate after 40 mins in presence of [gamma-33P]ATP by scintillation counting method
[8] = molecular target: Serine/threonine-protein kinase 35 (Homo sapiens) (UniProt Q8TDR2); assay: Inhibition of recombinant full-length human CLIK1 at 1 uM using RSRSRSRSRSRSRSR as substrate after 40 mins in presence of [gamma-33P]ATP by scintillation counting method
[9] = molecular target: Maternal embryonic leucine zipper kinase (Homo sapiens) (UniProt Q14680); assay: Inhibition of recombinant human MELK (1 to 340 residues) at 1 uM using KKLNRTLSFAEPG as substrate after 40 mins in presence of [gamma-33P]ATP by scintillation counting method
[10] = molecular target: BDNF/NT-3 growth factors receptor (Homo sapiens) (UniProt Q16620); assay: Inhibition of recombinant human TrkB (455 to end residues) at 1 uM using poly(Glu,Tyr) 4:1 as substrate after 40 mins in presence of [gamma-33P]ATP by scintillation counting method
[11] = molecular target: Protein kinase C iota type (Homo sapiens) (UniProt P41743); assay: Inhibition of recombinant full-length human PKCiota at 1 uM using ERMRPRKRQGSVRRRV as substrate after 40 mins in presence of [gamma-33P]ATP by scintillation counting method
[12] = Metabolic stability in rat liver microsomes assessed as compound remaining at 1 uM in presence of NADPH as cofactor measured after 30 mins by LC-MS/MS method; assay type: ADME, microsome; details: read-out: Stability
[13] = molecular target: Tyrosine-protein kinase Tec (Homo sapiens) (UniProt P42680); assay: Inhibition of recombinant activated human Tec (174 to end residues) at 1 uM using EFPIYDFLPAKKK as substrate after 40 mins in presence of [gamma-33P]ATP by scintillation counting method
[14] = molecular target: Cyclin-dependent kinase-like 1 (Homo sapiens) (UniProt Q00532); assay: Inhibition of recombinant human CDKL1 (1 to 303 residues) at 1 uM using RRRFRPASPLRGPPK as substrate after 120 mins in presence of [gamma-33P]ATP by scintillation counting method
[15] = molecular target: Serine/threonine-protein kinase Chk1 (Homo sapiens) (UniProt O14757); assay: Inhibition of recombinant full-length human CHK1 at 1 uM using KKKVSRSGLYRSPSMPENLNRPR as substrate after 40 mins in presence of [gamma-33P]ATP by scintillation counting method
[16] = molecular target: Serine/threonine-protein kinase MARK1 (Homo sapiens) (UniProt Q9P0L2); assay: Inhibition of recombinant human MARK1 (2 to end residues) at 1 uM using KKKVSRSGLYRSPSMPENLNRPR as substrate after 40 mins in presence of [gamma-33P]ATP by scintillation counting method
[17] = molecular target: Non-receptor tyrosine-protein kinase TYK2 (Homo sapiens) (UniProt P29597); assay: Inhibition of recombinant human TYK2 (875 to end residues) at 1 uM using GGMEDIYFEFMGGKKK as substrate after 40 mins in presence of [gamma-33P]ATP by scintillation counting method
[18] = molecular target: Serine/threonine-protein kinase MAK (Homo sapiens) (UniProt P20794); assay: Inhibition of recombinant full-length human MAK at 1 uM using RRRFRPASPLRGPPK as substrate after 120 mins in presence of [gamma-33P]ATP by scintillation counting method
[19] = molecular target: STE20-like serine/threonine-protein kinase (Homo sapiens) (UniProt Q9H2G2); assay: Inhibition of recombinant human SLK (1 to 373 residues) at 1 uM using RLGRDKYKTLRQIRQ as substrate after 40 mins in presence of [gamma-33P]ATP by scintillation counting method
Sequence of STE20-like serine/threonine-protein kinase (Homo sapiens) (Q9H2G2 whole entry, looked up, the tested form may be a part): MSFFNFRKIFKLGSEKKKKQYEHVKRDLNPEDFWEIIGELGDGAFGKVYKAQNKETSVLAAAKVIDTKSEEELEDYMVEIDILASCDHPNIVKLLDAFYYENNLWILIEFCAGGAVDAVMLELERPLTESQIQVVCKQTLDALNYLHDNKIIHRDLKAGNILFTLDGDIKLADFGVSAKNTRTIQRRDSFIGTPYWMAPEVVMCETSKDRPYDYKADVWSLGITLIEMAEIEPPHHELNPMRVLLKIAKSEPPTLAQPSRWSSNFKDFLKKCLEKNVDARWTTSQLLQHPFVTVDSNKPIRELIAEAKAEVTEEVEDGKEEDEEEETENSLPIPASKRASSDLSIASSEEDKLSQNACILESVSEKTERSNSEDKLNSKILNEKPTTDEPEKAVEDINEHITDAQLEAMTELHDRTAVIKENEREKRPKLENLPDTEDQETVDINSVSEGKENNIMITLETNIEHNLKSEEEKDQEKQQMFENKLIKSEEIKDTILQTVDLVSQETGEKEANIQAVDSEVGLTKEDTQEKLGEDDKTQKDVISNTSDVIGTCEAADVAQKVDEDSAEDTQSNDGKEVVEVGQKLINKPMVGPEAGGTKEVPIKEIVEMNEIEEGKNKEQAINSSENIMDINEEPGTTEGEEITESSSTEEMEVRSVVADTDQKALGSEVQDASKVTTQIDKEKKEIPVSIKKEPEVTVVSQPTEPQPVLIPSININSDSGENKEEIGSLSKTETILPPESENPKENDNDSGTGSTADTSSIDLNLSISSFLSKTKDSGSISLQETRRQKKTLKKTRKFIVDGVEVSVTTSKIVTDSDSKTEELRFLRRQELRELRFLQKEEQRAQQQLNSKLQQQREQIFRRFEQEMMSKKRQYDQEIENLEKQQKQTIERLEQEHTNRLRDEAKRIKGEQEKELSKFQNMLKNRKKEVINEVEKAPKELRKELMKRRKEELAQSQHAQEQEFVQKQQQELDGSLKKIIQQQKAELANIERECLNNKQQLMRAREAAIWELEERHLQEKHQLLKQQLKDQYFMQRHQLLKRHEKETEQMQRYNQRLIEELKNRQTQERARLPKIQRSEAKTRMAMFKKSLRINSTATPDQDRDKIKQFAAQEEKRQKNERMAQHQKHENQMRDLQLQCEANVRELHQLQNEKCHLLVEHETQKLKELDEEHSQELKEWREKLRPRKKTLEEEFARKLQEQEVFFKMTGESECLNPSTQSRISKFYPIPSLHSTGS

[20] = molecular target: Dual specificity mitogen-activated protein kinase kinase 4 (Mus musculus) (UniProt P47809); assay: Inhibition of recombinant mouse MKK4 (34 to end residues) at 1 uM using inactive JNK1a1 as substrate after 40 mins in presence of [gamma-33P]ATP by scintillation counting method
[21] = molecular target: Mitogen-activated protein kinase kinase kinase kinase 4 (Homo sapiens) (UniProt O95819); assay: Inhibition of recombinant human MAP4K4 (1 to 328 residues) at 1 uM using RLGRDKYKTLRQIRQ as substrate after 40 mins in presence of [gamma-33P]ATP by scintillation counting method
Sequence of Mitogen-activated protein kinase kinase kinase kinase 4 (Homo sapiens) (O95819 2-1239 limits assumed): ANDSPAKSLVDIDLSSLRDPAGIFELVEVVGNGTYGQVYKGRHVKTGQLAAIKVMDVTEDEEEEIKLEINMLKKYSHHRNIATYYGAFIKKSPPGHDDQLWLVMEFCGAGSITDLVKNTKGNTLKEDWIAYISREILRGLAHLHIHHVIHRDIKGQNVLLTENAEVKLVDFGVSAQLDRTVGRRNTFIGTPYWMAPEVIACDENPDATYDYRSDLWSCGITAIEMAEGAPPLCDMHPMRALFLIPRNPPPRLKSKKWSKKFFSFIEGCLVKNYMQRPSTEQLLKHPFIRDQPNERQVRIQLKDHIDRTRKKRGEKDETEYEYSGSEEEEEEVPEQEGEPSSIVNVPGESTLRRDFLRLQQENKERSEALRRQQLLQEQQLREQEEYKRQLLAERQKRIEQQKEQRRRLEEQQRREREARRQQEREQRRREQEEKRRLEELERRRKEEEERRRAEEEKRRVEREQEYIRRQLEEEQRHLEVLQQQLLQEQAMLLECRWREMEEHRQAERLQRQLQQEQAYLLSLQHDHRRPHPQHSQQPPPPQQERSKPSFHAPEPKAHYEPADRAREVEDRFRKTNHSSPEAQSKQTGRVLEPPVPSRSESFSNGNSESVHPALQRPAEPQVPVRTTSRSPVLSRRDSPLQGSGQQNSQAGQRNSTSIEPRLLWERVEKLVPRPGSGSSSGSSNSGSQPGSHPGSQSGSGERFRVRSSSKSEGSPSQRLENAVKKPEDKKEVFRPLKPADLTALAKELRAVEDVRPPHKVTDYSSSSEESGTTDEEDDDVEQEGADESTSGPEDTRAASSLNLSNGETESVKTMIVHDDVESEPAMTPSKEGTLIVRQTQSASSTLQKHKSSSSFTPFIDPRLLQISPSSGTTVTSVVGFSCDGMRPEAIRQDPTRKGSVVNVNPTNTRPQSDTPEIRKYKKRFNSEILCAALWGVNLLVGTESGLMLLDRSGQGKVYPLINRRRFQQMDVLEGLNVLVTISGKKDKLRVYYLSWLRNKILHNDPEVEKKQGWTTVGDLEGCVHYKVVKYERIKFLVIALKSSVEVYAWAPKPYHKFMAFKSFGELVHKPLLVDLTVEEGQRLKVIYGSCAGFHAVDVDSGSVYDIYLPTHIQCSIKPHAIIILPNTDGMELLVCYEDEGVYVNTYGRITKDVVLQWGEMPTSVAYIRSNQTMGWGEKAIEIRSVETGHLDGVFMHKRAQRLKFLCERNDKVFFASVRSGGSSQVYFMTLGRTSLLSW

[22] = molecular target: Mitogen-activated protein kinase 12 (Homo sapiens) (UniProt P53778); assay: Inhibition of recombinant full-length human SAPK3 at 1 uM using myelin basic protein as substrate after 40 mins in presence of [gamma-33P]ATP by scintillation counting method
[23] = molecular target: Casein kinase II subunit alpha (Homo sapiens) (UniProt P68400); assay: Inhibition of recombinant full-length human CK2 at 1 uM using RRRDDDSDDD as substrate after 40 mins in presence of [gamma-33P]ATP by scintillation counting method

CS(=O)(=O)c1ccc(-n2nc(-c3cnc4[nH]ccc4c3)c3c(N)ncnc32)cc1
inhibition [1]: 13%
inhibition [2]: 53%
inhibition [3]: -10%
inhibition [4]: 20%
inhibition [5]: 69%
inhibition [6]: -1%
inhibition [7]: 9%
inhibition [8]: 3%
inhibition [9]: 28%
inhibition [10]: 4%
inhibition [11]: 5%
remaining at 0.5 h, 1 µM [12]: 63%
inhibition [13]: 55%
inhibition [14]: 3%
inhibition [15]: 2%
inhibition [16]: -7%
inhibition [17]: 8%
inhibition [18]: 2%
inhibition [19]: 7%
inhibition [20]: 10%
inhibition [21]: -8%
inhibition [22]: 2%
inhibition [23]: 2%
